Source: ChEMBL document CHEMBL5233210, “Pyrazolone structural motif in medicinal chemistry: Retrospect and prospect” (Eur J Med Chem, 2020)
Converted amounts (≈) assume the structure as drawn. One block for each molecule: values may come before it.

Key:
MCF7 = assay: Cytotoxicity against human MCF7 cells; format: functional, cell-based
Streptococcus pyogenes = assay: Antibacterial activity against Streptococcus pyogenes; format: functional
Aspergillus fumigatus = assay: Antifungal activity against Aspergillus fumigatus; format: functional
Escherichia coli [1] = assay: Antibacterial activity against Escherichia coli; format: functional
Pseudomonas aeruginosa = assay: Antibacterial activity against Pseudomonas aeruginosa; format: functional
Candida albicans = assay: Antifungal activity against Candida albicans; format: functional
Rattus norvegicus [2] = assay: Antiinflammatory activity against rat assessed as inhibition of carrageenan-induced paw edema; format: functional
Rattus norvegicus [3] = assay: Antiinflammatory activity against rat assessed as inhibition of carrageenan-induced paw edema relative to control; format: functional; design: concentration or dose not given beside the values
Ehrlich [4] = assay: Cytotoxicity against mouse Ehrlich ascites cells assessed as dead cells at 25 ug/ml; format: functional; details: dose 25 µg/ml
Ehrlich [5] = assay: Cytotoxicity against mouse Ehrlich ascites cells assessed as dead cells at 100 ug/ml; format: functional; details: dose 100 µg/ml
Ehrlich [6] = assay: Cytotoxicity against mouse Ehrlich ascites cells assessed as dead cells at 500 ug/ml; format: functional; details: dose 500 µg/ml
[7] = Antioxidant activity assessed as DPPH radical scavenging activity; format: functional
Aspergillus niger = assay: Antifungal activity against Aspergillus niger; format: functional
Staphylococcus aureus = assay: Antibacterial activity against Staphylococcus aureus; format: functional
Bacillus subtilis [8] = assay: Antibacterial activity against Bacillus subtilis; format: functional
Ovis aries = species: Ovis aries; assay: Selectivity index, ratio of IC50 for ovine COX-1 to IC50 for ovine COX-2
Bacillus subtilis [9] = assay: Antibacterial activity against Bacillus subtilis assessed as diameter of inhibition zone at 100 ppm; format: functional; details: read-out: DIZ
Escherichia coli [10] = assay: Antibacterial activity against Escherichia coli assessed as diameter of inhibition zone at 100 ppm; format: functional; details: read-out: DIZ
[11] = Antioxidant activity assessed as ABTS radical scavenging activity; format: functional

Structure (SMILES): Cc1c(-n2cc(C#N)c(=O)n(-c3ccc(I)cc3)c2=S)c(=O)n(-c2ccccc2)n1C
IC50 (MCF7): 30.7 µM

Structure (SMILES): CC(C)CCC[C@@H](C)[C@H]1CC[C@H]2[C@@H]3C/C(=C4\C(=O)NN=C4N)C4CCCC[C@]4(C)[C@H]3CC[C@]12C (stereo partly specified)
MIC (Streptococcus pyogenes): 50 µg/mL (≈ 107 µM)
MIC (Aspergillus fumigatus): 25 µg/mL (≈ 53.4 µM)
MIC (Escherichia coli [1]): 50 µg/mL (≈ 107 µM)
MIC (Pseudomonas aeruginosa): 50 µg/mL (≈ 107 µM)
MIC (Candida albicans): 25 µg/mL (≈ 53.4 µM)

Structure (SMILES): NS(=O)(=O)c1ccc(N/N=C2/C=NN(c3ccc(C(=O)O)cc3)C2=O)cc1
ED50 (Rattus norvegicus [2]): 79 µmol/kg
Activity (Rattus norvegicus [3]): 72.72%

Structure (SMILES): CCOC(=O)c1c(N/N=C2/C(=O)NN=C2C)sc2c1CCCC2
Activity (Ehrlich [4]): 43%
Activity (Ehrlich [5]): 79.4%
Activity (Ehrlich [6]): 71%

Structure (SMILES): Cc1c(-n2cc3c(N)nnc-3n(-c3ccccc3)/c2=N\N)c(=O)n(-c2ccccc2)n1C
IC50 (MCF7): 45 µM

Structure (SMILES): N#Cc1c(N/N=C2/C(=O)NN=C2N)sc2c1CCCC2
Activity (Ehrlich [4]): 94%
Activity (Ehrlich [5]): 100%
Activity (Ehrlich [6]): 98.6%

Structure (SMILES): CC1=NNC(=O)/C1=N/Nc1sc2c(c1C#N)CCCC2
Activity (Ehrlich [4]): 29.8%
Activity (Ehrlich [5]): 84%
Activity (Ehrlich [6]): 53.3%

Structure (SMILES): CCOC(=O)C1CCN(/C(Nc2ccccc2)=C2\C(=O)N(c3ccccc3)N=C2C)CC1
zone of inhibition at 100 µg/mL (Bacillus subtilis [9]): 36 mm
zone of inhibition at 100 µg/mL (Escherichia coli [10]): 40 mm

Structure (SMILES): Cc1c(-n2cc(C#N)c(=O)n(-c3ccccc3)c2=N)c(=O)n(-c2ccccc2)n1C
IC50 (MCF7): 54.2 µM

Structure (SMILES): CC1=NN(c2nc(-c3ccccc3)cs2)C(=O)C1
Activity [11]: 85.7%

Structure (SMILES): COc1ccc(-c2cc(C3C(=O)N(c4ccccc4)N=C3C)nc(N)n2)cc1 (stereo unspecified)
Activity (Rattus norvegicus [3]): 61.02%

Structure (SMILES): CC1=NN(c2ccccc2)C(=O)C1c1cc(-c2ccc(N(C)C)cc2)nc(N)n1 (stereo unspecified)
Activity (Rattus norvegicus [3]): 62%

Structure (SMILES): Cc1c(-n2cc(C#N)c(=O)n(-c3ccc(Br)cc3)c2=S)c(=O)n(-c2ccccc2)n1C
IC50 (MCF7): 43.4 µM

Structure (SMILES): COc1cc(-c2cc(C3C(=O)N(c4ccccc4)N=C3C)nc(N)n2)ccc1O (stereo unspecified)
Activity (Rattus norvegicus [3]): 61.23%

More lines, main results first:

IC50 [7]: 19.1 µM
Structure (SMILES): C/C(=N\c1c(C)n(C)n(-c2ccccc2)c1=O)c1ccc(O)cc1O

MIC (Streptococcus pyogenes): 62.5 µg/mL (≈ 122 µM)
MIC (Aspergillus niger): > 1000 µg/mL
MIC (Escherichia coli [1]): 200 µg/mL (≈ 392 µM)
MIC (Staphylococcus aureus): 125 µg/mL (≈ 245 µM)
MIC (Bacillus subtilis [8]): 125 µg/mL (≈ 245 µM)
MIC (Pseudomonas aeruginosa): 250 µg/mL (≈ 490 µM)
MIC (Candida albicans): > 1000 µg/mL
Structure (SMILES): CCCC1=NN(c2c(F)c(F)cc(F)c2F)C(=O)/C1=C\c1cn(-c2ccccc2)nc1-c1cccs1

MIC (Aspergillus niger): 2.9 µg/mL (≈ 9.99 µM)
MIC (Escherichia coli [1]): 125 µg/mL (≈ 431 µM)
MIC (Candida albicans): 7.8 µg/mL (≈ 26.9 µM)
Structure (SMILES): CC1=NN(C(=S)NN)C(=O)/C1=N/Nc1ccc(C)cc1

IC50 [7]: 30.3 µM
Structure (SMILES): CCCOC(=O)c1cc(O)c(O)c(O)c1 [PROPYL GALLATE]

Ratio IC50 (Ovis aries): 4.84
Structure (SMILES): CCCCNc1nc2ccccc2n1C1=NN=C(O)C1
Activity (Rattus norvegicus [3]): 61%

IC50 [7]: 15.2 µM
Structure (SMILES): C/C(=N\c1c(C)n(C)n(-c2ccccc2)c1=O)c1cc(O)ccc1O

IC50 [7]: 31.3 µM
Structure (SMILES): Cc1c(/N=C/c2ccccc2)c(=O)n(-c2ccccc2)n1C

MIC (Aspergillus niger): 5.8 µg/mL (≈ 18.7 µM)
MIC (Escherichia coli [1]): 188 µg/mL (≈ 603 µM)
MIC (Candida albicans): 15.6 µg/mL (≈ 50.2 µM)
Structure (SMILES): CC1=NN(C(=S)NN)C(=O)/C1=N/Nc1ccc(Cl)cc1

MIC (Aspergillus niger): 7.52 µg/mL (≈ 15.9 µM)
MIC (Escherichia coli [1]): 13.3 µg/mL (≈ 28 µM)
MIC (Staphylococcus aureus): 7.96 µg/mL (≈ 16.8 µM)
MIC (Pseudomonas aeruginosa): 10.2 µg/mL (≈ 21.6 µM)
MIC (Candida albicans): 8.58 µg/mL (≈ 18.1 µM)
Structure (SMILES): Nc1cc(=O)n(C(=O)CN2N=C(C(F)(F)F)/C(=N/Nc3ccc(Br)cc3)C2=O)[nH]1

IC50 [7]: 17.1 µM
Structure (SMILES): Cc1c(/N=C/c2cc(O)ccc2O)c(=O)n(-c2ccccc2)n1C

Ratio IC50 (Ovis aries): 4.73
Structure (SMILES): O=C1CC(Nc2ccccc2NC(=S)NC2CCCCC2)=NN1
Activity (Rattus norvegicus [3]): 56%

MIC (Aspergillus niger): 50 µg/mL (≈ 140 µM)
MIC (Staphylococcus aureus): 25 µg/mL (≈ 69.9 µM)
MIC (Bacillus subtilis [8]): 25 µg/mL (≈ 69.9 µM)
Structure (SMILES): NC1=NNC(=O)C1C(CS(=O)(=O)Cc1ccccc1)c1ccccc1 (stereo unspecified)
